# Laboratory results published in ChEMBL document CHEMBL1287678, “5-{2-[4-(2-methyl-5-quinolinyl)-1-piperazinyl]ethyl}-2(1H)-quinolinones and 3,4-dihydro-2(1H)-quinolinones: dual-acting 5-HT1 receptor antagonists and serotonin reuptake inhibitors. Part 3” (Bioorg Med Chem Lett, 2010).
# pEC50, pKi: −log10 of the molar value.
# Columns and labels:
# Liver microsomes = assay: Intrinsic clearance in human liver microsomes; format: ADME, Microsome
# [1] = molecular target: T1, 5-hydroxytryptamine receptor 1D (Homo sapiens, UniProt P28221); assay: Antagonist activity at human 5-HT1D receptor expressed in CHO cells assessed as inhibition of GTPgammaS binding by scintillation proximity assay; format: functional, cell-based
# T1 sequence (P28221 whole entry): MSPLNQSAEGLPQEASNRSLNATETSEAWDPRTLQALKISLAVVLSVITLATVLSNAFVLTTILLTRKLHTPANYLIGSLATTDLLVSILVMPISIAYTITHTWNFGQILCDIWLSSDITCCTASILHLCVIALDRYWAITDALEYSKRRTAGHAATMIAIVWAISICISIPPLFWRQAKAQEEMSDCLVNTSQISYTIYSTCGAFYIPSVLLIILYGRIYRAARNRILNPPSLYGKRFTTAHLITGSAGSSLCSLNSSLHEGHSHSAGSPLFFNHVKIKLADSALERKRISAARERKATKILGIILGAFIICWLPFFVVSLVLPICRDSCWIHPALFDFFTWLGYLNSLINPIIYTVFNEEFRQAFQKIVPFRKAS
# [2] = molecular target: Voltage-gated inwardly rectifying potassium channel KCNH2 (Homo sapiens, UniProt Q12809); assay: Displacement of [3H]-dofetilide in human hERG expressed in CHO cells by proximity assay; format: cell-based
# Sequence of Voltage-gated inwardly rectifying potassium channel KCNH2 (Q12809 whole entry): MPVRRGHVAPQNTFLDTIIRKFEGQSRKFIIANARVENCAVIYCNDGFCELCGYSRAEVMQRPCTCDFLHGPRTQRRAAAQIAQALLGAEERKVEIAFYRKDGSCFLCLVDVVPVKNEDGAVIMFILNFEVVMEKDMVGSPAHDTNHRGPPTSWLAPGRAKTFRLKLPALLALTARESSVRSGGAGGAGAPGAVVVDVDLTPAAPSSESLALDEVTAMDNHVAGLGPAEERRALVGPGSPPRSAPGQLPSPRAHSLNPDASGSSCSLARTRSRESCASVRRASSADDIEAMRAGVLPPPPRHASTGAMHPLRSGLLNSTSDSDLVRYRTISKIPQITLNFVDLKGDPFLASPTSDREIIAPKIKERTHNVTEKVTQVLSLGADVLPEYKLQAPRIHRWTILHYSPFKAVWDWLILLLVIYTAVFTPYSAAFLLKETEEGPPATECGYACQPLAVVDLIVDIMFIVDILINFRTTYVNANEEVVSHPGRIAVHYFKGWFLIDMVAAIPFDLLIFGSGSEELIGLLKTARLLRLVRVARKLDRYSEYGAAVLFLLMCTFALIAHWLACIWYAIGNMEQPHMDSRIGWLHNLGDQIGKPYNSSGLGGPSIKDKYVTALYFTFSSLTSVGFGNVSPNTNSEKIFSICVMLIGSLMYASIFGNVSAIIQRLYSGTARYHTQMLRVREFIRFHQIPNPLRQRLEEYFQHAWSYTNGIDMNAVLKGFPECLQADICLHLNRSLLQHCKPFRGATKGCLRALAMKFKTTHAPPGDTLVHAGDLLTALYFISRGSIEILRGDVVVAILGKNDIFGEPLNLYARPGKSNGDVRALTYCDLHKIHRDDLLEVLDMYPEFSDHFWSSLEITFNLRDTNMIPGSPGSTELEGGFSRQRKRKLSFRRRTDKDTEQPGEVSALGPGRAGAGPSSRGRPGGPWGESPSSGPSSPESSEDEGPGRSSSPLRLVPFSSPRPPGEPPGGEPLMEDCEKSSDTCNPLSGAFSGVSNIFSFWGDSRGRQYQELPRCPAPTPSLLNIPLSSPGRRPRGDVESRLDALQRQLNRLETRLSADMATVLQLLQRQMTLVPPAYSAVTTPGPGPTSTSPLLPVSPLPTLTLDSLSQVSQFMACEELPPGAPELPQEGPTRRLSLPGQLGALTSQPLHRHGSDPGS
# [3] = molecular target: T2, 5-hydroxytryptamine receptor 1B (Homo sapiens, UniProt P28222); assay: Intrinsic activity at human 5-HT1B receptor expressed in CHO cells assessed as effect on GTPgammaS binding by scintillation proximity assay relative to 5HT; format: functional, cell-based
# T2 sequence (P28222 whole entry): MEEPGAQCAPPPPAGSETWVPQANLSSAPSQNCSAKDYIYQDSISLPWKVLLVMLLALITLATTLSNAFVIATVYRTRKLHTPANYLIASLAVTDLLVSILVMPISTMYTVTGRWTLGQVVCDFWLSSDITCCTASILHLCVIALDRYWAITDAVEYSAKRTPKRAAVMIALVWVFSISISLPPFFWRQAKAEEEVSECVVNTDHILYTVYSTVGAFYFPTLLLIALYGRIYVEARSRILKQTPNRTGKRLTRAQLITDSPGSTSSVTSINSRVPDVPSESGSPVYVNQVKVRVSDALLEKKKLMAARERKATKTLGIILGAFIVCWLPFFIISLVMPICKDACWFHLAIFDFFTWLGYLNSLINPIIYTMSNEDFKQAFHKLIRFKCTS
# [4] = molecular target: T1, 5-hydroxytryptamine receptor 1D; assay: Intrinsic activity at human 5-HT1D receptor expressed in CHO cells assessed as effect on GTPgammaS binding by scintillation proximity assay relative to 5HT; format: functional, cell-based
# [5] = molecular target: Sodium-dependent serotonin transporter (Homo sapiens, UniProt P31645); assay: Displacement of [3H]-citalopram in human SERT expressed in LLCPK cells by filtration assay; format: cell-based
# Sequence of Sodium-dependent serotonin transporter (P31645 whole entry): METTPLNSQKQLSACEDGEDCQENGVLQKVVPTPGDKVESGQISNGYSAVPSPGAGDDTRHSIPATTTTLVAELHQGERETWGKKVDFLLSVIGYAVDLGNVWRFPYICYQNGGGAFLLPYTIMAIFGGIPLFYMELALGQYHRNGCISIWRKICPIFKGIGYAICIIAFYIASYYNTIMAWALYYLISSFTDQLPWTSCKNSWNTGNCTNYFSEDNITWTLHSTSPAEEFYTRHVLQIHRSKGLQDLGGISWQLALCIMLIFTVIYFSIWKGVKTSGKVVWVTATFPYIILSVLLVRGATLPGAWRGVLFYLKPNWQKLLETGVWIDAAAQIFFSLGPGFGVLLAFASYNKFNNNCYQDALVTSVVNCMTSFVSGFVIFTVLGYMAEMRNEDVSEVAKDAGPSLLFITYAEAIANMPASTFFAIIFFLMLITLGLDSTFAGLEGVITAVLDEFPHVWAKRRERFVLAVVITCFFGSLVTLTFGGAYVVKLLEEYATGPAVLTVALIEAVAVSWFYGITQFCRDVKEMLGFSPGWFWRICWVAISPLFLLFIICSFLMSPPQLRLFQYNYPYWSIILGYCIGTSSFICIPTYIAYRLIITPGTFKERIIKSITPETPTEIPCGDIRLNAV
# [6] = molecular target: T3, 5-hydroxytryptamine receptor 1A (Homo sapiens) (UniProt P08908); assay: Intrinsic activity at human 5-HT1A receptor expressed in HEK293 cells assessed as effect on GTPgammaS binding by scintillation proximity assay relative to 5HT; format: functional, cell-based
# T3 sequence (whole entry): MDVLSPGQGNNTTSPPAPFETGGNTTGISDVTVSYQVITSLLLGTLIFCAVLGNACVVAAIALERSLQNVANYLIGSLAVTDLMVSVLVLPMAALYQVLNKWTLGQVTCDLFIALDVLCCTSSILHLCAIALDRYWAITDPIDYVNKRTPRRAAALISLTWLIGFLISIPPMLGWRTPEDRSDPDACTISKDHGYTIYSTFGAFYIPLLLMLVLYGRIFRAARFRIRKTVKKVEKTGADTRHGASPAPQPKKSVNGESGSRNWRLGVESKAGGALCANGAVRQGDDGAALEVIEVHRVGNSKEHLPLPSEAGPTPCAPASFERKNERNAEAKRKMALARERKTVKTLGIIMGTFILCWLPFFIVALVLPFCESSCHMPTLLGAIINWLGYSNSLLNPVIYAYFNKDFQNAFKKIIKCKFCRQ
# [7] = molecular target: T2, 5-hydroxytryptamine receptor 1B; assay: Antagonist activity at human 5-HT1B receptor expressed in CHO cells assessed as inhibition of GTPgammaS binding by scintillation proximity assay; format: functional, cell-based
# [8] = molecular target: T4, 5-hydroxytryptamine receptor 1A (Homo sapiens, UniProt P08908); assay: Antagonist activity at human 5-HT1A receptor expressed in HEK293 cells assessed as inhibition of GTPgammaS binding by scintillation proximity assay; format: functional, cell-based
# T4 sequence (P08908 whole entry): T3 sequence (whole entry)
# [9] = Blood clearance in rat at 0.5 mg/kg, iv and 1 mg/kg, po; format: ADME, organism-based; details: whole blood
# [10] = Half life in rat at 0.5 mg/kg, iv and 1 mg/kg, po; format: ADME, organism-based; details: in vivo
# [11] = Volume of distribution at steady state in rat at 0.5 mg/kg, iv and 1 mg/kg, po; format: ADME, organism-based; details: in vivo, read-out: Vdss
# [12] = Ratio of drug level in brain to blood in rat at 0.5 mg/kg, iv and 1 mg/kg, po; format: ADME, organism-based; details: brain / whole blood
# [13] = Oral bioavailability in rat at 1 mg/kg; format: ADME, organism-based; details: in vivo
# [14] = molecular target: T2, 5-hydroxytryptamine receptor 1B; assay: Agonist activity at human 5-HT1B receptor expressed in CHO cells assessed as stimulation of GTPgammaS binding by scintillation proximity assay; format: functional, cell-based
Structure (SMILES),CL (Liver microsomes) [mL/min/g],pKi [1],pKi [2],Intrinsic activity [3],Intrinsic activity [4],pKi [5],Intrinsic activity [6],pKi [7],pKi [8],clearance [9] [mL/min/kg],half-life [10] [h],Vd [11] [L/kg],Kp [12],bioavailability [13] [%],pEC50 [14]
Cc1ccc2c(N3CCN(CCc4cccc5c4OCC(=O)N5C)CC3)cccc2n1,2.4,–,–,–,–,–,–,–,–,–,–,–,–,–,–
Cc1ccc2c(N3CCN(CCc4cccc5c4OCC(=O)N5)CC3)cccc2n1,1,–,–,–,–,–,–,–,–,–,–,–,–,–,–
Cc1ccc2c(N3CCN(CCc4c(F)ccc5c4ccc(=O)n5C)CC3)cccc2n1,–,9.40,4.50,0,0,7.90,0,7.50,9.40,–,–,–,–,–,–
Cc1ccc2c(N3CCN(CCc4cccc5[nH]c(=O)ccc45)CC3)cccc2n1,–,–,–,0,0,–,0,–,–,–,–,–,–,–,–
Cc1ccc2c(N3CCN(CCc4cccc5c4ccc(=O)n5C)[C@@H](C)C3)cc(F)cc2n1,0.8,8.90,5.20,0,0,9.30,0,6.50,9.00,34,1.6,2,1.2,34,–
Cc1ccc2c(N3CCN(CCc4c(C)ccc5c4ccc(=O)n5C)[C@@H](C)C3)cccc2n1,< 0.5,7.70,5.80,–,0,9.30,0,< 6.00,8.40,46,1.2,2.7,1.7,35,–
Cc1ccc2c(N3CCN(CCc4cccc5c4ccc(=O)n5C)C(C)(C)C3)cccc2n1,3.8,9.30,–,–,0,–,0.3,9.30,8.80,34,0.6,0.8,1.1,27,–
Cc1ccc2c(N3CCN(CCc4c(C)ccc5c4ccc(=O)n5C)[C@@H](C)C3)cc(F)cc2n1,–,< 6.00,–,–,–,9.00,0,< 6.00,8.40,–,–,–,–,–,–
Cc1ccc2c(N3CCN(CCc4cccc5c4ccc(=O)n5C)[C@@H](C)C3)cccc2n1,1.5,8.30,5.30,0,0,8.60,0,6.40,8.50,32,0.6,1.2,1.3,12,–
Cc1ccc2c(N3CCN(CCc4c(C)ccc5c4ccc(=O)n5C)CC3)cc(F)cc2n1,1.6,8.70,5.60,–,0,8.00,0,< 6.00,8.90,46,0.7,2.4,–,82,–
Cc1ccc2c(N3CCN(CCc4c(C)ccc5[nH]c(=O)ccc45)CC3)cccc2n1,–,–,–,0.4,0,7.00,0,–,9.00,–,–,–,–,–,6.30
Cc1ccc2c(N3CCN(CCc4c(C)ccc5c4ccc(=O)n5C)CC3)cccc2n1,1.5,8.70,5.40,0.4,0,7.90,0,–,9.20,28,1.1,2.3,0.5,88,7.20
Cc1ccc2c(N3CCN(CCc4cccc5c4CCC(=O)N5C)CC3)cccc2n1,–,10.10,5.40,0,0,7.90,0,9.10,9.20,–,–,–,–,–,–
Cc1ccc2c(N3CCN(CCc4c(C)ccc5c4ccc(=O)n5C)[C@H](C)C3)cccc2n1,1.2,8.60,5.10,–,0,8.40,0,< 6.00,8.90,21,1.5,2.1,0.4,31,–
Cc1ccc2c(N3CCN(CCc4cccc5c4CCC(=O)N5)CC3)cccc2n1,–,–,–,0,0,–,0,–,–,–,–,–,–,–,–
Cc1ccc2c(C3CCN(CCc4c(C)ccc5c4ccc(=O)n5C)CC3)cccc2n1,0.9,7.40,5.70,–,0,8.90,0,< 6.00,8.90,31,1.4,3.4,0.8,82,–
Cc1ccc2c(N3CCN(CCc4cccc5c4ccc(=O)n5C)[C@H](C)C3)cc(F)cc2n1,–,9.90,5.00,0,0,9.30,0,9.10,9.00,–,–,–,–,–,–
Cc1ccc2c(N3CCN(CCc4c(C)ccc5c4CCC(=O)N5C)CC3)cccc2n1,1.3,9.00,6.10,0.4,0,7.60,0,–,9.20,9,3,2,0.4,83,6.40
Cc1ccc2c(N3CCN(CCc4c(Cl)ccc5c4ccc(=O)n5C)CC3)cccc2n1,–,8.40,–,0.5,0,7.80,0,–,8.40,–,–,–,–,–,6.50
